The text below walks through data of ChEMBL document CHEMBL4513161, “CO-ADD screening of MMV (CH) - Pandemic Response Box” (2021).

≈ marks a conversion by molar mass, not a printed value.

Test [1] relates to Acinetobacter baumannii. Description: microbe, parasite or virus in culture. The conditions noted are these: ATCC 19606, 18 h, ASSAY_TEST Inhibition of Bacterial Growth, detection method Absorption (OD600), MEDIA CAMHB, plate type 384well, NBS, CORNING #3640.
Description: Antibacterial activity against Acinetobacter baumannii ATCC 19606 (CO-ADD:GN_034); MIC in CAMBH media using NBS plates, by OD600
For test [2], the system named is Pseudomonas aeruginosa. Description: microbe, parasite or virus in culture. The conditions noted are these: ATCC 27853, 18 h, ASSAY_TEST Inhibition of Bacterial Growth, detection method Absorption (OD600), MEDIA CAMHB, plate type 384well, NBS, CORNING #3640.
Description: Antibacterial activity against Pseudomonas aeruginosa ATCC 27853 (CO-ADD:GN_042); MIC in CAMBH media using NBS plates, by OD(600)
Test [3] concerns Cryptococcus neoformans.
Description: Antifungal activity against Cryptococcus neoformans H99 ATCC 208821 (CO-ADD:FG_002); MIC in YNB media using NBS plates, by Resazurin OD(600-570)
Test [4] relates to Staphylococcus aureus. Description: microbe, parasite or virus in culture. The conditions noted are these: ATCC 43300, 18 h, ASSAY_TEST Inhibition of Bacterial Growth, detection method Absorption (OD600), MEDIA CAMHB, plate type 384well, NBS, CORNING #3640.
Description: Antibacterial activity against Staphylococcus aureus MRSA ATCC 43300 (CO-ADD:GP_020); MIC in CAMBH media, using NBS plates, by OD(600)
For test [5], the system named is HEK293. Nature of the test: cells. To be noted: Homo sapiens, ATCC CRL1573, HEK293; ASSAY_TEST Inhibition of Cell Viability; detection method Resazurin; Fluorescence (ex560/em590); MEDIA DMEM with 10% FBS; plate type 384well; TC; CORNING #3712; time 18 hr; read-out: CC50. Format: functional, Homo sapiens, ATCC CRL1573. In general terms: Resazurin is reduced to fluorescent resorufin, in cell work by metabolically active cells.

Test [6] relates to Klebsiella pneumoniae. Description: microbe, parasite or virus in culture. The conditions noted are these: ATCC 700603, 18 h, ASSAY_TEST Inhibition of Bacterial Growth, detection method Absorption (OD600), MEDIA CAMHB, plate type 384well, NBS, CORNING #3640.
Description: Antibacterial activity against Klebsiella pneumoniae MDR ATCC 70063 (CO-ADD:GN_003); MIC in CAMBH media using NBS plates, by OD(600)
For test [7], the system named is Candida albicans. Description: microbe, parasite or virus in culture. To be noted: ATCC 90028, ASSAY_TEST Inhibition of Fungal Growth, detection method Absorption (OD530), plate type 384well, NBS, CORNING #3640.
Description: Antifungal activity against Candida albicans ATCC 90028 (CO-ADD:FG_001); MIC in YNB media using NBS plates, by OD630
Test [8] concerns Pseudomonas aeruginosa. Description: Antibacterial activity against Pseudomonas aeruginosa PAO397 [PAO1 d(mexAB-oprM) d(mexCD-oprJ) d(mexEF-oprN) d(mexJKL) d(mexXY) d(opmH)] (CO-ADD:GN_211); MIC in CAMBH media using NBS plates, by OD(600). The format is functional. The conditions noted are these: ASSAY_TEST Inhibition of Bacterial Growth, detection method Absorption (OD600), MEDIA CAMHB, plate type 384well, CORNING #3640, time 18 hr.

Test [9] concerns Escherichia coli. Nature of the test: microbe, parasite or virus in culture. To be noted: ATCC 25922, 18 h, ASSAY_TEST Inhibition of Bacterial Growth, detection method Absorption (OD600), MEDIA CAMHB, plate type 384well, NBS, CORNING #3640.
Description: Antibacterial activity against Escherichia coli ATCC 25922 (CO-ADD:GN_001); MIC in CAMBH media using NBS plates, by OD(600)

For `CN(C)CCCNC(=O)c1ccc(-c2cc(O)c3ncccc3c2)cc1`, the MIC in test [1], in test [2], in test [3], in test [4], in test [6] and in test [7] was above 20 µM in each case. In addition, the MIC in [8] and in test [9] was above 20 µM each time. In addition, the CC50 (commonly the concentration giving 50% cytotoxicity) in test [5] amounted to 16.6 µM.

On to `COc1ccc2c(c1)cc(CNC(=O)c1cc3ccccc3o1)n2CC(=O)O`, for which the MIC in test [1], in [2], in [3], in [4], in test [6] and in test [7] was above 20 µM in each case. Moreover, the MIC in [8] and in test [9] was above 20 µM each time. The CC50 in test [5] is above 20 µM.

With `O=[N+]([O-])c1ccc2c(CCc3c[nH]c4ccccc34)c[nH]c2c1`, the MIC in test [1], in [2], in test [3], in [4], in test [6] and in [7] was above 20 µM each time. In addition, the MIC in [8] and in [9] was above 20 µM throughout. Also, the CC50 in [5] was above 20 µM.

`N[C@H]1CCC[C@H]1C(=O)O`: the MIC in test [1], in test [2], in test [3], in test [4], in [6] and in [7] was above 20 µM in each case. In addition, the MIC in test [8] and in test [9] was above 20 µM in each case. Further, in test [5], the CC50 is above 20 µM.

Regarding `O=C(CC1Sc2ncnn2C1=O)Nc1ccc(Br)cc1` (centres undefined), the MIC in test [1] is above 20 µM; in test [2] it was above 20 µM; in test [3], 10 µM (≈ 3.53 µg/mL); in test [4], above 20 µM; in test [6], above 20 µM; in test [7], 20 µM (≈ 7.06 µg/mL). The MIC in test [8] and in [9] was above 20 µM in each case. Besides, the CC50 in test [5] was above 20 µM.

Take `CCCCSc1nc(N)c2[nH]c(=O)c(=O)n(Cc3ccccc3)c2n1`: the MIC in [1], in test [2], in test [3], in test [4], in test [6] and in [7] was above 20 µM in each case. Besides, the MIC in [8] and in test [9] was above 20 µM throughout. For the same compound, the CC50 in test [5] is above 20 µM.

Turning to `Oc1cc(-c2cccc3ccccc23)[nH]n1`, the MIC in [1], in test [2], in [3], in test [4], in test [6] and in test [7] was above 20 µM throughout. For the same compound, the MIC in test [8] and in test [9] was above 20 µM each time. Also, the CC50 in [5] is above 20 µM.

Turning to `COc1ccc(C)cc1NC(=O)c1ccc(S(=O)(=O)N2CCCCC2)cc1`, the MIC in test [1], in test [2], in [3], in test [4], in test [6] and in test [7] was above 20 µM throughout. Further, the MIC in test [8] and in test [9] was above 20 µM each time. In test [5], the CC50 is above 20 µM.

On to `CN(C)CC(=O)Nc1ccc2[nH]c(=O)c3ccccc3c2c1` [PJ34], for which the MIC in test [1], in [2], in test [3], in test [4], in test [6] and in [7] was above 20 µM in each case. For the same compound, the MIC in test [8] and in test [9] was above 20 µM each time. The CC50 in test [5] is above 20 µM.

With `CC1(C)C[C@H]1C(=O)N/C(=C\CCCCSC[C@@H](N)C(=O)O)C(=O)O`, the MIC in test [1], in [2], in test [3], in test [4], in test [6] and in test [7] was above 20 µM each time. The MIC in test [8] and in test [9] was above 20 µM each time. The CC50 in test [5] is above 20 µM.

With `Nc1nc(Nc2ccc3nc(-c4ccc(F)cc4)cc(N)c3c2)cc(-c2ccccc2)n1`, the MIC in test [1] was above 20 µM; in test [2] it was above 20 µM; in [3], at most 0.156 µM; in test [4] it was 10 µM (≈ 4.22 µg/mL); in [6] it was above 20 µM; in test [7], 0.625 µM (≈ 0.264 µg/mL). In addition, the MIC in test [8] and in test [9] was above 20 µM in each case. Also, the CC50 in [5] stood at 0.751 µM.

In the case of `O=S(=O)(Nc1cccc2cccnc12)c1ccccc1`, the MIC in test [1], in test [2], in [3], in test [4], in test [6] and in test [7] was above 20 µM in each case. Moreover, the MIC in test [8] and in test [9] was above 20 µM in each case. The CC50 in test [5] is 2.25 µM.

As for `CCc1cc(O)c(Oc2cccnc2N)cc1F`, the MIC was above 20 µM in test [1]; 2.5 µM (≈ 0.621 µg/mL) in [2]; above 20 µM in test [3]; 1.25 µM (≈ 0.31 µg/mL) in test [4]; 20 µM (≈ 4.97 µg/mL) in test [6]; above 20 µM in test [7]. Further, the MIC was above 20 µM in test [8] and 1.25 µM (≈ 0.31 µg/mL) in test [9]. Further, in test [5], the CC50 was above 20 µM.

As for `CN(C(=O)C1(c2ccc(Cl)cc2)CCC1)c1ccccc1`, the MIC in test [1], in test [2], in test [3], in [4], in test [6] and in test [7] was above 20 µM in each case. Also, the MIC in test [8] and in test [9] was above 20 µM each time. For the same compound, in test [5], the CC50 was above 20 µM.

Take `CC(C)Nc1ncnc2c1cnn2-c1ccc(Cl)cc1`: the MIC in [1], in [2], in test [3], in [4], in [6] and in test [7] was above 20 µM in each case. Also, the MIC in [8] and in test [9] was above 20 µM throughout. The cytotoxic concentration (CC50) in [5] is above 20 µM.

In the case of `CCCCOC(=O)Nc1cc2nc(C3CCCCC3)[nH]c2cc1N(CC)CC`, the MIC in test [1], in test [2], in test [3], in test [4], in [6] and in test [7] was above 20 µM in each case. Moreover, the MIC in test [8] and in test [9] was above 20 µM throughout. For the same compound, in test [5], the 50% cytotoxic concentration (CC50) is above 20 µM.

Consider `COc1ccc(-n2cnc3cc(NCc4ccco4)ccc32)cc1`, for which the MIC in [1], in test [2], in test [3], in [4], in test [6] and in [7] was above 20 µM throughout. The MIC in [8] and in [9] was above 20 µM in each case. Besides, the CC50 in test [5] is above 20 µM.

Consider `CC(C)(C)NC(=O)[C@@H]1CN(Cc2cnc3occc3c2)CCN1C[C@@H](O)C[C@@H](Cc1ccccc1)C(=O)N[C@H]1c2ccccc2C[C@H]1O`, for which the MIC in [1], in [2], in [3], in test [4], in [6] and in test [7] was above 20 µM in each case. In addition, the MIC in test [8] and in [9] was above 20 µM in each case. In test [5], the CC50 was above 20 µM.

For `CCOc1noc2cc(OCCC3CCN(c4ccc(C)nn4)CC3)ccc12`, the MIC in test [1], in test [2], in test [3], in [4], in test [6] and in [7] was above 20 µM in each case. The MIC in test [8] and in test [9] was above 20 µM each time. The CC50 in test [5] was above 20 µM.

`CCc1cc(Cc2cnc(N)nc2N)cc2c1N(C)CCC2C` (centres undefined): the MIC in [1] was above 20 µM; in test [2] it was above 20 µM; in [3], above 20 µM; in test [4], 10 µM (≈ 3.11 µg/mL); in test [6], above 20 µM; in test [7], above 20 µM. In addition, the MIC in [8] and in test [9] was above 20 µM each time. Further, the CC50 in test [5] is above 20 µM.

On to `O=C(NCCN1CCCCC1)c1cccc(C(F)(F)F)c1`, for which the MIC in test [1], in [2], in test [3], in test [4], in test [6] and in test [7] was above 20 µM in each case. Besides, the MIC in [8] and in test [9] was above 20 µM each time. Also, the CC50 in test [5] is above 20 µM.
